For one test, the target named is T1, TgGNA1 (Toxoplasma gondii, UniProt A0A7J6K6Y4).
T1 construct: gene TGRH88_028800
T1 sequence (A0A7J6K6Y4 1-516): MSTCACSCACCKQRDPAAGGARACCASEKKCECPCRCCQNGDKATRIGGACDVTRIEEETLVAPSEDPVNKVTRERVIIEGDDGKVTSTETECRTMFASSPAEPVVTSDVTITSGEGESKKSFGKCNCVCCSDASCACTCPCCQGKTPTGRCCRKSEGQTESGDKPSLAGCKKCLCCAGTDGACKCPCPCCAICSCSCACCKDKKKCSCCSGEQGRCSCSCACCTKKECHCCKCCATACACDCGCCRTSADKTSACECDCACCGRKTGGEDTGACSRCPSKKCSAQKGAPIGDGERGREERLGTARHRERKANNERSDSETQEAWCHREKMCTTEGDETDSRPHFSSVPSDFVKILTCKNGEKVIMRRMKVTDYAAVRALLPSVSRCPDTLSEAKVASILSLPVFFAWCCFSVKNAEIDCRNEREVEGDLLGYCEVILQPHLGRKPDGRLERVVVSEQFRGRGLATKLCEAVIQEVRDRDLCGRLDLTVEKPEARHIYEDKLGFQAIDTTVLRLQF
Put plainly: HPLC-MS/MS and colorimetric GNA1 assay. It counts as biochemical. To be noted: […] AcCoA, […] GlcN-6P, […] Tris-HCl, […] NaCl, pH […], room temperature.

In another test the target is T2, PfGNA1 (Plasmodium falciparum, UniProt C6KTC5).
T2 construct: gene PF3D7_0629000; deficiently expressed
T2 sequence (C6KTC5 1-291): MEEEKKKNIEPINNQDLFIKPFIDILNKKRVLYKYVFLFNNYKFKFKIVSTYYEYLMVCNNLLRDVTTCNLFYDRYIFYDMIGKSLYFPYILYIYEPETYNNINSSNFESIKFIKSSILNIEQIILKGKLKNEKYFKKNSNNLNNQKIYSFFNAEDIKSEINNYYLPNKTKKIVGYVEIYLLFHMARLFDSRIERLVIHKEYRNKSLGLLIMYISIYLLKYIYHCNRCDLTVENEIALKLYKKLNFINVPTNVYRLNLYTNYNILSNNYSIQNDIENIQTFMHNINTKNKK
Description: HPLC-MS/MS GNA1 assay. Format: biochemical. Conditions: 500 µM AcCoA, 500 µM GlcN-6P, 25 mM Tris-HCl, 150 mM NaCl, pH 7.2, room temperature.

In the case of `CC(=O)SCCNC(=O)CCNC(=O)[C@H](O)C(C)(C)COP(=O)(O)OP(=O)(O)OC[C@H]1O[C@@H](n2cnc3c(N)ncnc32)[C@H](O)[C@@H]1OP(=O)(O)O` [AcCoA], the “HPLC-MS/MS and colorimetric GNA1 assay” value at TgGNA1 is “The enzymes used GlcN-6P as substrate and AcCoA as donor to produce GlcNAc-6P”. The “HPLC-MS/MS GNA1 assay” value on PfGNA1 is “PfGNA1 and TaGNA1 were deficiently expressed, they also showed residual activity as detected by HPLC-MS/MS”.
As for `N[C@H]1C(O)O[C@H](COP(=O)(O)O)[C@@H](O)[C@@H]1O` (stereo partly shown) [GlcN-6P], the “HPLC-MS/MS and colorimetric GNA1 assay” value at TgGNA1 is listed as “TgGNA1 distinctly acetylated GlcN-6P”. Further, the “HPLC-MS/MS GNA1 assay” value on PfGNA1 was “PfGNA1 and TaGNA1 were deficiently expressed, they also showed residual activity as detected by HPLC-MS/MS”.

Source of the values: publication PMC5838249, “The Apicomplexa-specific glucosamine-6-phosphate N-acetyltransferase gene family encodes a key enzyme for glycoconjugate synthesis with potential as therapeutic target” (Scientific Reports, 2018).
